Test [1] deals with T1, Nuclear receptor subfamily 0 group B member 1 (Homo sapiens, UniProt P51843).
T1 sequence (P51843 whole entry): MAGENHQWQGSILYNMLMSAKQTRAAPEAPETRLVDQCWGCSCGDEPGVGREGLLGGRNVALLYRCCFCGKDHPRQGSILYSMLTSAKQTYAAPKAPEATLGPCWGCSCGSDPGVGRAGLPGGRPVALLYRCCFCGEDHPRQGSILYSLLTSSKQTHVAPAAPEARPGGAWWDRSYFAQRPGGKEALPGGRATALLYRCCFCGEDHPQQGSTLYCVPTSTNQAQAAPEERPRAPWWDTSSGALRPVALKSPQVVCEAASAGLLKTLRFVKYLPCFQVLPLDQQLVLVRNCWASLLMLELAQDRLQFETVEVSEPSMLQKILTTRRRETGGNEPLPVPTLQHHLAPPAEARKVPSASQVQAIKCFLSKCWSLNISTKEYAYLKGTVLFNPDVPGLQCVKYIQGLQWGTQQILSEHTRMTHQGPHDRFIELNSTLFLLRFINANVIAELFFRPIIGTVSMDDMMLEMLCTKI
In words: Luminescence-based cell-based high throughput dose response assay for inhibitors of the orphan nuclear receptor subfamily 0, group B, member 1 (DAX1; NR0B1). [Related pubchem assays (depositor defined):AID504766, AID504790]. Format: functional.

Test [2] concerns HEK293. Kind of test: cells. Format: functional, cell-based. The conditions noted are these: Homo sapiens.
In test [3] the target is Phospholipase A2 (Homo sapiens, UniProt P04054). Format: functional.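 Also: confirmatory dose-response counterscreen on phospholipase A2, testing hits that came from an ultra-high-throughput screen for ATG4B inhibitors.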
Test [4] deals with T2, Cysteine protease ATG4B (Homo sapiens, UniProt Q9Y4P1).
T2 sequence (Q9Y4P1 whole entry): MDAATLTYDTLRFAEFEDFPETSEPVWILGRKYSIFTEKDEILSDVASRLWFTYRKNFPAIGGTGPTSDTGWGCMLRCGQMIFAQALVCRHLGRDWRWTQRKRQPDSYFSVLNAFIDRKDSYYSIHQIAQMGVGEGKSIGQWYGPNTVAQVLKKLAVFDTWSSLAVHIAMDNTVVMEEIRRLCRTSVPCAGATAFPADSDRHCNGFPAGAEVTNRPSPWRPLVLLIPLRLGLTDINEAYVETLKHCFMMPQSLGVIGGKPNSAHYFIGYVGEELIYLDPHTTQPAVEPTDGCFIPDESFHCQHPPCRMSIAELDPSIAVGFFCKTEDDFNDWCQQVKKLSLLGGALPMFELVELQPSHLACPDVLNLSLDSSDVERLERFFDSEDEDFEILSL
Format: functional.

Test [5] deals with Protein-tyrosine kinase 2-beta (Homo sapiens, UniProt Q14289).
The test system of test [6] is CHO. Kind of test: CHO cell viability loss, potency – luminescence, cytotoxicity control for TLR9-MyD88 binding inhibitor project, dose response (AID 588339).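 Also: CHO cells stably coexpressing TLR9 and MyD88 fusions from primary screen; compound exposure lasted 48 hours before viability readout.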 Format: functional, cell-based, hamster. The conditions noted are these: Cricetulus griseus.
Test [7] has as its target Induced myeloid leukemia cell differentiation protein Mcl-1 (Homo sapiens, UniProt Q07820). Format: functional.
Test [8] concerns the target T3, Corticotropin-releasing factor receptor 2/Corticotropin-releasing factor-binding protein (Homo sapiens, UniProt P24387+Q13324).
T3 sequence (Q13324 whole entry): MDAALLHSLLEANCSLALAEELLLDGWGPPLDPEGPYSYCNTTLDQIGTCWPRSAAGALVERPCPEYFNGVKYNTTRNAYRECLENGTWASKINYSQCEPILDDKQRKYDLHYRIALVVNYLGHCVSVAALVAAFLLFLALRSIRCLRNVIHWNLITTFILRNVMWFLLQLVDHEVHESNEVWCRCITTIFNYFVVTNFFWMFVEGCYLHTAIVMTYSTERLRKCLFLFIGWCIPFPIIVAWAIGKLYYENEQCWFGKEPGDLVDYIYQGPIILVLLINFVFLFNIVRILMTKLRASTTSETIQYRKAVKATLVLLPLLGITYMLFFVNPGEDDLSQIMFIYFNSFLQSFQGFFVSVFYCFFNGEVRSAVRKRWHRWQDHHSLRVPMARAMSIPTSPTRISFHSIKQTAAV
T3 sequence (P24387 whole entry): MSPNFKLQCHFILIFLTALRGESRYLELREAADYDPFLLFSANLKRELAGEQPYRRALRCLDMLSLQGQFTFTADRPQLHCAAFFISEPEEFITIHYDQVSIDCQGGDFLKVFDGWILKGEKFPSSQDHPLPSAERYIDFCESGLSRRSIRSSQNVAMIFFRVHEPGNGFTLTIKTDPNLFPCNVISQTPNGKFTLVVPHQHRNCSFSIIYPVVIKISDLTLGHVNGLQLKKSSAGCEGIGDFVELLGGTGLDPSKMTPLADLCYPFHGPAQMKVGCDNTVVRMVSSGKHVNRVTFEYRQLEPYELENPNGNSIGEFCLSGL
In words: Dose Response confirmation of uHTS hits for small molecule antagonists of the CRF-binding protein and CRF-R2 receptor complex. It is filed as functional. The conditions noted are these: read-out: IC50_Mean.

For test [9], the system named is Escherichia coli. In words: microbe, parasite or virus in culture.
Test [10] in a line: blockers of CRF-binding protein–CRF-R2 complex – cell-based, uHTS hits, 384-well, dose response (AID 651639). Format: functional, Homo sapiens. The conditions noted are these: read-out: IC50_Mean.
For test [11], the target named is T3, Corticotropin-releasing factor receptor 2/Corticotropin-releasing factor-binding protein. Kind of test: activators of CRF receptor 2 with binding protein – uHTS hits, confirmation (AID 602473). The conditions noted are these: read-out: EC50_Mean. It is filed as functional.
Test [12] concerns HT-1080. In words: HT1080 cell viability loss – fluorescence readout (AID 620). It is filed as functional, cell-based. The conditions noted are these: Homo sapiens.
For test [13], the target named is Luciferin 4-monooxygenase (Photinus pyralis, UniProt P08659). In words: Counter Screen for Luciferase-based Assay Positives. [Related pubchem assays: 620, 618, 411 ]. For orientation: A counterscreen serves to expose hits that act by an unwanted route or on another target.
For test [14], the target named is Nonstructural protein 1 (Influenza A virus, UniProt Q194T2). Format: functional, Influenza A virus (A/California/07/2009(H1N1)).
Test [15] deals with T4, Sentrin-specific protease 7 (Homo sapiens, UniProt Q9BQF6).
T4 sequence (Q9BQF6 whole entry): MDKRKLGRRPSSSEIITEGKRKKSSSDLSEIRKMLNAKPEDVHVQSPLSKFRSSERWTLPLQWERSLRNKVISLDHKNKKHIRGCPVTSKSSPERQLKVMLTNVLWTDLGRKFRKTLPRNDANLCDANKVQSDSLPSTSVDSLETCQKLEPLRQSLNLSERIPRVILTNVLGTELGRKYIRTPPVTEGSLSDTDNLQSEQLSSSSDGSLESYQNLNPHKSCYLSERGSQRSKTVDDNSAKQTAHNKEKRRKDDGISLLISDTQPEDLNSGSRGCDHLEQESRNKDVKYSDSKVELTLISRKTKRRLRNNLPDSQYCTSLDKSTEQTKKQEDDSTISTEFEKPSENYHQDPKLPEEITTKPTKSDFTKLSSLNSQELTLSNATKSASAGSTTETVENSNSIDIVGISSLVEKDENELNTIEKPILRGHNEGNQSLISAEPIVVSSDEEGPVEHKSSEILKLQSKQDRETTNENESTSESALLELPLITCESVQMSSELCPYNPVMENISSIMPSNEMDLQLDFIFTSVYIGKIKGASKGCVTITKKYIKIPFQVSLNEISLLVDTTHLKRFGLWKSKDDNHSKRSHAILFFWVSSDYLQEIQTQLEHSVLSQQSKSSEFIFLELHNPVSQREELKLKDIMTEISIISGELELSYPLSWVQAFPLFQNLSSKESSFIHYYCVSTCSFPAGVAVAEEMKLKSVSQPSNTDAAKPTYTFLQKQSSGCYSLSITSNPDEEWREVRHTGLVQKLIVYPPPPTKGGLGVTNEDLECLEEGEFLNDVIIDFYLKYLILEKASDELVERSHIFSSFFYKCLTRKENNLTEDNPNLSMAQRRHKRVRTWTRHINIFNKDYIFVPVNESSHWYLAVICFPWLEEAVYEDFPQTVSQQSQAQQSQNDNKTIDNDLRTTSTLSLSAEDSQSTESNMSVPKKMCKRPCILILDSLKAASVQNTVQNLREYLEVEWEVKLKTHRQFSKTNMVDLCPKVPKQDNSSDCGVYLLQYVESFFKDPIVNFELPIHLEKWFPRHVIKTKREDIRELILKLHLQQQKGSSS
It is filed as functional.

Test [16] addresses T5, Sentrin-specific protease 8 (Homo sapiens, UniProt Q96LD8).
T5 sequence (Q96LD8 whole entry): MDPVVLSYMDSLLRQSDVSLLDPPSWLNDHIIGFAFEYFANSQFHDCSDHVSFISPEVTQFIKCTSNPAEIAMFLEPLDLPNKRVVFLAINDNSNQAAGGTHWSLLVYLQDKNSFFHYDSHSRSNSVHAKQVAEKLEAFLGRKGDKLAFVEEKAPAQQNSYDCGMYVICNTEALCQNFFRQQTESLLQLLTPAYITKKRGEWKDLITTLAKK
Format: functional.

Test [17] deals with T6, Caspase-3 (Homo sapiens, UniProt P42574).
T6 sequence (P42574 whole entry): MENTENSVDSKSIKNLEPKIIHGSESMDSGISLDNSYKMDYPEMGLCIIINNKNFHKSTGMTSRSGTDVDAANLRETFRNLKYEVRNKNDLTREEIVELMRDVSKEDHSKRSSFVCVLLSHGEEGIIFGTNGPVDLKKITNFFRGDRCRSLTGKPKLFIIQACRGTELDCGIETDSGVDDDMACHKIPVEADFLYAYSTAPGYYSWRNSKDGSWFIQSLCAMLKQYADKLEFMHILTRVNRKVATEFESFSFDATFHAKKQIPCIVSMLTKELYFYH
It is filed as functional.

The target of test [18] is T7, Sentrin-specific protease 6 (Homo sapiens, UniProt Q9GZR1).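 Also: Luminescence-based dose-response confirmatory assay of SENP6 inhibition, following up an ultra-high-throughput screen.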
T7 sequence (Q9GZR1 whole entry): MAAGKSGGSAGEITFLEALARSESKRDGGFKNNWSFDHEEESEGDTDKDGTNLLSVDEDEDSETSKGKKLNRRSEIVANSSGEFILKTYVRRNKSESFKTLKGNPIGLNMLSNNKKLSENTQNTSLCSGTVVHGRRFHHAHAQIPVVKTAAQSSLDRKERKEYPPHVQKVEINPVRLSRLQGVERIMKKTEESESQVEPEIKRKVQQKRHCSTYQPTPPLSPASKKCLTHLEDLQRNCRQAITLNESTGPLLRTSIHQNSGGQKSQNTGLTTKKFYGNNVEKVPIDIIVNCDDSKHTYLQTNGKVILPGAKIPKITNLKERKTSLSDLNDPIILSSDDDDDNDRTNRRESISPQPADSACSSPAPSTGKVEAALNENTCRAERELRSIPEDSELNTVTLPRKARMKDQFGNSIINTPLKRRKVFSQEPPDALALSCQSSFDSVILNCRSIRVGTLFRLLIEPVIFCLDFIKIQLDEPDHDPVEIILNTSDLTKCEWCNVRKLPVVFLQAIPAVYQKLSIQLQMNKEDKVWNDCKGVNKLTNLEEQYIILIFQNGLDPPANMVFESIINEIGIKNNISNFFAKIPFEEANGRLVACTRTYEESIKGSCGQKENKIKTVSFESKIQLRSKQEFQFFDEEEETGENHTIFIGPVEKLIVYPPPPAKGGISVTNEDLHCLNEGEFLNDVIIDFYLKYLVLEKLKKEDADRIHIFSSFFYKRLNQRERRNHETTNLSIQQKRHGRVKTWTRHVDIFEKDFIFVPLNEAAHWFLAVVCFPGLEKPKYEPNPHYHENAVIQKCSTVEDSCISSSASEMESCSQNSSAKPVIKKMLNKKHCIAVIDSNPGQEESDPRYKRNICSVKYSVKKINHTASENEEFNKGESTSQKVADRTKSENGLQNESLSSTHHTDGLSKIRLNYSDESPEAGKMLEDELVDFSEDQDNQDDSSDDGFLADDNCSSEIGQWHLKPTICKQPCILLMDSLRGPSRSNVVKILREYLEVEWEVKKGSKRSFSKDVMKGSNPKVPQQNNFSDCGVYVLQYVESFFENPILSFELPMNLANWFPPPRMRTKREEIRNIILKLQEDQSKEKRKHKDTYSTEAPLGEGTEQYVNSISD
Format: functional.

This note sets out measurements from ChEMBL document CHEMBL1201862, “PubChem BioAssay data set” (2004).

As usually defined, the AC50 is the midpoint of the concentration-response curve, whichever way the signal moves.

Active and inactive are the calls of the source. Some results are limits rather than exact numbers.

Phospholipase A2, sequence (P04054 whole entry): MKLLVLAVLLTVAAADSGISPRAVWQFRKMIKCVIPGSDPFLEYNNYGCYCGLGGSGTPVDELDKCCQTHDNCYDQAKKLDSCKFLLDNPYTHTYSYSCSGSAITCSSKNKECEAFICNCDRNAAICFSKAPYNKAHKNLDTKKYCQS
Protein-tyrosine kinase 2-beta, sequence (Q14289 whole entry, the tested form may be a part): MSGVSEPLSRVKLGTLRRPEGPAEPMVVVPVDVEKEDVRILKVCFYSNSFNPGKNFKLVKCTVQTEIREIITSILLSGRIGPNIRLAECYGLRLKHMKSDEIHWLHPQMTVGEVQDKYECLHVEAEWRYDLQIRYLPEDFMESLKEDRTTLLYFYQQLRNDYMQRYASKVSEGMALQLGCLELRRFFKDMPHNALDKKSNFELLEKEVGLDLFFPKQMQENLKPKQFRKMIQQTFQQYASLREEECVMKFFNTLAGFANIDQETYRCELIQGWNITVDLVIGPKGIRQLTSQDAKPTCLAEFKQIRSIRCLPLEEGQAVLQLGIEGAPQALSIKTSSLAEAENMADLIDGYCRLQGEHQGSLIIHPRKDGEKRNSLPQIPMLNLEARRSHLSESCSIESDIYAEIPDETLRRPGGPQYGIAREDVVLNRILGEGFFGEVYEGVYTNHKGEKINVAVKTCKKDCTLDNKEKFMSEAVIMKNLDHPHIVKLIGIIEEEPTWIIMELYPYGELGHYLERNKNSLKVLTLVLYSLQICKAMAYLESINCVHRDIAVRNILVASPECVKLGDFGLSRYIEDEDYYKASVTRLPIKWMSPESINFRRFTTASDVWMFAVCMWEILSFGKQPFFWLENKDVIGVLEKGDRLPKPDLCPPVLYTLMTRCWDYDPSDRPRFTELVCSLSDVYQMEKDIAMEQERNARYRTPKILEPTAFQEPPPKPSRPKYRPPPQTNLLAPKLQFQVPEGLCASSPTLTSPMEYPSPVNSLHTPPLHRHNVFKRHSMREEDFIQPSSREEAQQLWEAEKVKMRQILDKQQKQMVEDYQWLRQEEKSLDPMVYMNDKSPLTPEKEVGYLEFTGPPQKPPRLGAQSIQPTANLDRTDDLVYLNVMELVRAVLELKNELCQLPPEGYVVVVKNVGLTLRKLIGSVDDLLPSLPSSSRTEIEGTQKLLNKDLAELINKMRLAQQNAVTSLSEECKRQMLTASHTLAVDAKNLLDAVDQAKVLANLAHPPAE
Induced myeloid leukemia cell differentiation protein Mcl-1, sequence (Q07820 whole entry): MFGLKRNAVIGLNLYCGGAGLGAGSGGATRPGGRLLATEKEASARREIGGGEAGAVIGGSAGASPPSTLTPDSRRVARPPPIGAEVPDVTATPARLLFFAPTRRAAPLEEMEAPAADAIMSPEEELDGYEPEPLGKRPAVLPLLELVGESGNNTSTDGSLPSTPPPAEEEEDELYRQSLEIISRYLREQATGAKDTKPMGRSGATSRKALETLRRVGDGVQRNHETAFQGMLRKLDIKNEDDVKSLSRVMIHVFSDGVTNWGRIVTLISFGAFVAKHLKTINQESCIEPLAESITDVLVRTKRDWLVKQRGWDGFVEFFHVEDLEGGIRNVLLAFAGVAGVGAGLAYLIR
Nonstructural protein 1, sequence (Q194T2 whole entry): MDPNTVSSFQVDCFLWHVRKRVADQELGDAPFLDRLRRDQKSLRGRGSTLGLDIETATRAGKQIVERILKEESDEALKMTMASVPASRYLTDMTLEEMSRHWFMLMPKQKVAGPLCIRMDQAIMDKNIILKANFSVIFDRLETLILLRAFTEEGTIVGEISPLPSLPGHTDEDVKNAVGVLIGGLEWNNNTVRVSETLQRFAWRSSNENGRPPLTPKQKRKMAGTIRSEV
Luciferin 4-monooxygenase, sequence (P08659 whole entry): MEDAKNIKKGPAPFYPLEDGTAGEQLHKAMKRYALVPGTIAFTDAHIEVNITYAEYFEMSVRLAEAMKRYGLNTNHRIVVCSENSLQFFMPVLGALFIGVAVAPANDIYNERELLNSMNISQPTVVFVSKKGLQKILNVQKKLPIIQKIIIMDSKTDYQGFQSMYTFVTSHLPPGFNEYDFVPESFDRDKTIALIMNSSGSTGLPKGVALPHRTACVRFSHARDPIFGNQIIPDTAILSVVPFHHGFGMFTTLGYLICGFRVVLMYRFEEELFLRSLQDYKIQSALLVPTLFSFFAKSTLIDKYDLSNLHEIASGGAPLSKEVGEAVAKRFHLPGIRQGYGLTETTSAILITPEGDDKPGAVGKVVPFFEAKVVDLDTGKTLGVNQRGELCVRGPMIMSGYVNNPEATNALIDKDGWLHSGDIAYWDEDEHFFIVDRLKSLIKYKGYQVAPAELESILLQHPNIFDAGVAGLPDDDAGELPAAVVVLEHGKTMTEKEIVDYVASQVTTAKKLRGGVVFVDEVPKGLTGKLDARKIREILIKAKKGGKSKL

Take `Nc1c(O)nc(O)nc1C(=O)OCC(=O)NCc1ccccc1`: the IC50 in [1] and in test [2] was > 67.5 µM (inactive) each time.
On to `COc1ccc(Cl)cc1-n1c(=S)sc2c(O)nc(SCC(=O)NCCC(C)C)nc21`, for which the IC50 was 13.8 µM (active) in test [3] and 19.5 µM (active) in [4].
For `COc1ccc(C(=O)c2sc3nc(-c4ccccc4)ccc3c2N)cc1OC`, the figures for the IC50 in test [5], in test [6] and in test [7] were 12 µM (not active), 27.3 µM (inactive) and 1.27 µM (not active), respectively.
In the case of `Cc1oc(-c2ccccc2Cl)nc1C[S+]([O-])CC(=O)NCc1ccccc1Cl` (configuration not stated), the IC50 in test [3] was 7.47 µM (active); in [4] it was 16.8 µM (active).
With `O=C(NC(Cc1ccccc1)c1nc2ccccc2[nH]1)c1ccc(Cl)c([N+](=O)[O-])c1` (configuration not stated), the IC50 was 11.6 µM (active) in test [8] and 4.96 µM (active) in test [10]. Also, in test [9], the AC50 was 25 µM (active). Also, the EC50 in test [11] is > 53 µM (inactive).
As to `Clc1ccc(-c2nnc(N3CCCC3)nn2)cc1`, the IC50 in test [1] is > 67.5 µM (inactive); in [2], > 67.5 µM (inactive); in [14] it was > 100 µM (active). In addition, the figures for the EC50 in test [12] and in [13] were > 50 µM (not active) and 1.39 µM (active), respectively.
For the compound `CCOC(=O)c1c(C)[nH]c(C(=O)OCC(=O)c2ccccc2)c1C`, the IC50 is 7.72 µM (active) in [15], 26.4 µM (active) in test [16], 24.3 µM (active) in [17] and 24.4 µM (active) in test [18].
The matching figures for `O=C(Nc1nnc(CCc2ccccc2)s1)c1ccccc1F`: 16.8 µM (active), > 100 µM (inactive), 18.9 µM (active) and > 100 µM (inactive).
As to `O=C1c2ccccc2C(=O)N1CCc1c[nH]c2ccccc12`, the IC50 in [1] and in [2] was > 67.5 µM (inactive) throughout.
Regarding `O=C(N/N=C/C(Br)=C\c1ccccc1)c1cccs1`, the IC50 was 5.94 µM (active) in test [15], > 100 µM (inactive) in test [16], 31.6 µM (active) in test [17] and > 100 µM (inactive) in test [18].
